# Assay results: patent US20230181614A1, “ADMINISTRATION OF CITICOLINE TO IMPROVE COGNITIVE PERFORMANCE, ATTENTIONAL PERFORMANCE, AND MOTOR FUNCTION” (KYOWA HAKKO BIO CO., LTD., priority 2014, published 2023)
# Several values for one entry are separate records, joined by “and”; a condition that tells them apart may be missing. Identical values can stand only once.
# How the values were obtained:
# [1] = system: Healthy subjects, ages 13-18; assay: Pittsburgh Sleep Quality Index (PSQI); assay type: in vivo, human; details: for PSQI Score, Mean: V3-V1
# Description: Study participants were screened by telephone prior to study enrollment. Healthy subjects, ages 13-18, with no significant medical conditions and no history of co-morbid psychiatric disorder, current Axis I or II diagnosis, or previous participation in a pharmacotherapeutic trial, were selected. Use of any psychotropic medication or any previous head injury resulting in loss of consciousness for 5 or more minutes were used as exclusion criteria. While no participant met criteria for a neuropsychiatric disorder at enrollment, clinical assessments were still completed throughout the study to evaluate changes in mood state. In addition, self-reports of sleep habits, lifestyle, and exercise routines were also administered at baseline as well as at each study visit to assess changes in health habits during study participation. Following the completion of Visit 1 assessment, participants were given their 28-day supply of citicoline (250 mg or 500 mg) or placebo, which was randomly assigned. They were instructed to take one capsule a day every day for the next 28 days. Visit 2 occurred fourteen days after Visit 1. At Visit 2, the remaining study pills were counted and participant dosage calendars were checked to ensure compliance with the protocol. Additional neuropsychological measures and clinical assessments were administered during this visit. Participants returned for Visit 3 fourteen days later, on the 28th day of their study participation. The pill bottle and the dosage calendar were collected from each participant. Urine and blood were again obtained. Participants also participated in similar clinical and neuropsychological testing and clinical measures that were given during visit 1. The PSQI is a self-report sleep questionnaire designed to assess usual sleep habits during the past month. The PSQI was administered at each of the three study visits to assess alterations to sleep quality during the 28 days of study participation.
# [2] = system: Healthy subjects, ages 13-18; assay: Conner-Wells Self-Report Scale (L) (Conners); assay type: in vivo, human; details: for Conners Score, Mean: V3-V1
# Description: Study participants were screened by telephone prior to study enrollment. Healthy subjects, ages 13-18, with no significant medical conditions and no history of co-morbid psychiatric disorder, current Axis I or II diagnosis, or previous participation in a pharmacotherapeutic trial, were selected. Use of any psychotropic medication or any previous head injury resulting in loss of consciousness for 5 or more minutes were used as exclusion criteria. While no participant met criteria for a neuropsychiatric disorder at enrollment, clinical assessments were still completed throughout the study to evaluate changes in mood state. In addition, self-reports of sleep habits, lifestyle, and exercise routines were also administered at baseline as well as at each study visit to assess changes in health habits during study participation. Following the completion of Visit 1 assessment, participants were given their 28-day supply of citicoline (250 mg or 500 mg) or placebo, which was randomly assigned. They were instructed to take one capsule a day every day for the next 28 days. Visit 2 occurred fourteen days after Visit 1. At Visit 2, the remaining study pills were counted and participant dosage calendars were checked to ensure compliance with the protocol. Additional neuropsychological measures and clinical assessments were administered during this visit. Participants returned for Visit 3 fourteen days later, on the 28th day of their study participation. The pill bottle and the dosage calendar were collected from each participant. Urine and blood were again obtained. Participants also participated in similar clinical and neuropsychological testing and clinical measures that were given during visit 1. The Conners is a self-report questionnaire assessing a range or problem behaviors in children, including family problems, emotional problems, conduct problems, cognitive problems/inattention, anger control problems, hyperactivity, ADHD Index, and DSM-IV symptom subscales. The scale was administered at the first and third visits to assess presence or absence of a range of problem behaviors.
smiles,measurement,setting,value
"C[N+](C)(C)CCOP(=O)(O)OP(=O)([O-])OC[C@H]1O[C@@H](n2ccc(N)nc2=O)[C@H](O)[C@@H]1O [citicoline, Cytidine 5′-diphosphocholine]","PSQI, Mean","[1]; 250 mg/day, V1 (baseline)",3.41
same,"PSQI, Mean","[1]; 250 mg/day, V3 (day 28)",2.59
same,"PSQI Score, Mean",[1]; 250 mg/day,-0.81
same,"PSQI, Mean","[1]; 500 mg/day, V1 (baseline)",3.38
same,"PSQI, Mean","[1]; 500 mg/day, V3 (day 28)",2.46
same,"PSQI Score, Mean",[1]; 500 mg/day,-0.92
same,"Conners, Mean","[2]; 250 mg/day, V1 (baseline)",49.26
same,"Conners, Mean","[2]; 250 mg/day, V3 (day 28)",49.52 and 46.52
same,"Conners Score, Mean",[2]; 250 mg/day,-2.74
same,"Conners, Mean","[2]; 500 mg/day, V1 (baseline)",43.83
same,"Conners, Mean","[2]; 500 mg/day, V3 (day 28)",39.54
same,"Conners Score, Mean",[2]; 500 mg/day,-4.29
